These molecules were tested against T1, Ketohexokinase (KHK) (Homo sapiens, UniProt P50053) (assay: Activity measurement of ketohexokinase inhibitor in vitro (Transcreener ADP2 TR-FRET Red Assay)). Settings: purified His-tagged KHK expressed in E. coli; 30 min preincubation with inhibitor, 15 min reaction with ATP and fructose; ADP by TR-FRET (665/615 ratio).
T1 construct: His tag; made in house; host or cells: E. coli
T1 sequence (P50053 1-298): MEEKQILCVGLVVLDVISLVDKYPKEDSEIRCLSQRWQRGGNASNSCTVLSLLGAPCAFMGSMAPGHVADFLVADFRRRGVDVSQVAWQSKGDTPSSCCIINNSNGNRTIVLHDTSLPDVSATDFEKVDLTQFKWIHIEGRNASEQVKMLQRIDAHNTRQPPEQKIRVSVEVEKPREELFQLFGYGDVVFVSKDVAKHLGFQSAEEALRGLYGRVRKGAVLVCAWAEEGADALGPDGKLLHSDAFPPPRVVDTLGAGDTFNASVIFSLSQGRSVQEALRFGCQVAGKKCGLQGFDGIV
Type: biochemical
Procedure: Ketohexokinase (KHK) was expressed in E. coli, and was purified using His tag. In order to measure the activity of the purified KHK, Transcreener ADP2 TR-FRET Red Assay kit of BellBrook Labs was used. A method of measuring the amount of ADP produced using TR-FRET after reacting a solution including appropriate concentrations of a KHK protein, ATP, and fructose for 15 minutes, was used. In order to observe the activity of a ketohexokinase (KHK) inhibitor, ketohexokinase (KHK) and an inhibitor with an appropriate concentration were reacted first for 30 minutes, and then, reacted with a solution include a substrate of ketohexokinase (KHK) for 15 minutes. Then, reaction for TR-FRET was conducted for 1 hour, and fluorescence was measured using Envision apparatus of PerkinElmer Co. The predetermined value of Envision apparatus was determined according to the optimization process of TR-FRET published by BellBrook Lab. The resultant value for each concentration of the ketohexokinase (KHK) inhibitor is determined by a ratio of 665 nm wavelength and 615 nm wavelength. IC50 is analyzed by measuring the 665/615 ratio value with respect to the concentration of each inhibitor and using a statistics software (Prizm). IC50 was represented by the concentration of the inhibitor, showing 50% of the maximum inhibition activity by the inhibitor.

`C[C@H]1CCN1c1nc(N2C[C@H]3C[C@@H](C2)[C@H]3CC(=O)O)cc(C(F)(F)F)n1` [Example 1, 2-((1R,5S,6R)-3-(2-((S)-2-methylazetidine-1-yl)-6-(trifluoromethyl)pyrimidine-4-yl)-3-azabicyclo[3,1,1]heptane-6-yl)acetic Acid] and `C[C@H]1CCN1c1nc(N2C[C@H]3C[C@@H](C2)[C@@H]3CC(=O)O)cc(C(F)(F)F)n1` [Example 2, 2-((1R,5S,6S)-3-(2-((S)-2-methylazetidine-1-yl)-6-(trifluoromethyl)pyrimidine-4-yl)-3-azabicyclo[3,1,1]heptane-6-yl)acetic Acid] cannot be ordered by IC50: no less than 1 µM for the first, no more than 21.2 µM for the second.

`C[C@H]1CCN1c1nc(N2C[C@H]3C[C@@H](C2)[C@H]3CC(=O)O)cc(C(F)(F)F)c1C#N` [Example 3, 2-((1R,5S,6R)-3-(5-cyano-6-((S)-2-methylazetidine-1-yl)-4-(trifluoromethyl)pyridine-2-yl)-3-azabicyclo[3,1,1]heptane-6-yl)acetic Acid] and `C[C@H]1CCN1c1nc(N2C[C@H]3C[C@@H](C2)[C@@H]3CC(=O)O)cc(C(F)(F)F)c1C#N` [Example 4, 2-((1R,5S,6S)-3-(5-cyano-6-((S)-2-methylazetidine-1-yl)-4-(trifluoromethyl)pyridine-2-yl)-3-azabicyclo[3,1,1]heptane-6-yl)acetic Acid] cannot be ordered by IC50: no less than 1 µM for the first, no more than 21.2 µM for the second.

Molecule `N#Cc1c(C(F)(F)F)cc(N2C[C@H]3C[C@@H](C2)[C@@H]3CC(=O)O)nc1N1CCCC1` [Example 5, 2-((1R,5S,6R)-3-(5-cyano-6-(pyrrolidine-1-yl)-4-(trifluoromethyl)pyridine-2-yl)-3-azabicyclo[3,1,1]heptane-6-yl)acetic Acid] has an IC50 of no more than 21.2 µM.
